The source of these data is patent US12728149B2, “Pharmaceutical composition for preventing and treating depression, comprising herbal medicine complex extracts of Zizyphi spinosi Semen, Jujubae Fructus, Hordei Fructus Germinatus, Glycyrrhizae Radix et Rhizoma, Angelicae Gigantis Radix, and Beta vulgaris as active ingredients” (INDUSTRY-ACADEMIC COORPERATION FOUNDATION DAEGU HAANY …, priority 2023, dated 2026).

Assay [1] deals with mice. The experiment in a line: Forced swimming test (FST). In kind it is in vivo. How it is done: (§1) All animal experiment procedures of the present disclosure were conducted in compliance with the preliminary review and ethics regulations of the Animal Experiment Ethics Committee of Daegu Haany University. 4-week-old male ICR mice (SPF/VAF CrljBgi:CD-1) were supplied from the Daehan Biolink (Chungcheongbuk-do, Korea), and adapted and used for 7 days in the pharmacology animal laboratory of Daegu Haany University. Each group consisted of 8 mice, and 5 mice were housed in polycarbonate mice cages and bred in a breeding room where a temperature of 23±1° C., humidity of 50±5%, and lighting time of 07:00 to 19:00 (12-hour cycle) were kept constant. During the adaptation period, feed and water were supplied without restrictions. […]
(§2) In order to verify whether there was an antidepressant effect of the herbal medicine complex extracts of Zizyphi spinosi Semen, Jujubae Fructus, Hordei Fructus Germinatus, Glycyrrhizae Radix et Rhizoma, Angelicae Gigantis Radix, and Beta vulgaris of the present disclosure, a forced swimming test (FST) was performed using experimental animals. The antidepressant effect was determined by measuring the immobility time during the forced swimming test, and it was meant that shorter the immobility time, the greater the antidepressant effect. […]

The subject of assay [2] is mice. Briefly: Tail suspension test (TST). In kind it is in vivo. How it is done:
as §1
as §2, with “tail suspension” for “forced swimming”, “(TST)” for “(FST)”, “experimental animals with tails alternated mobility and immobility, and the” for “it was meant that”, “there was” for “the greater”

The mark [3] stands for this setting: imipramine 15 mg/kg intraperitoneally.

Turning to `CN(C)CCCN1c2ccccc2CCc2ccccc21` [Imipramine, imipramine], the “immobility time compared to the control group” value in the assay on mice [1] (setting [3]) is “reduced”; with mice [2] (setting [3]), “decreased”. In addition, the Immobility time is 177.01 ± 5.67 s in the assay on mice [1] (measured for 4 minutes, imipramine 15 mg/kg intraperitoneally for 1 week, test 30 minutes after administration on day 7) and 157.82 ± 11.02 s in the assay on mice [2] (measured for 10 minutes, imipramine 15 mg/kg intraperitoneally for 1 week).
